Results as given in article PMC3299084 (Journal of Medicinal Chemistry, 2012).
Peptide text beside a SMILES is read from it. * marks the point of attachment. X1 = CC(=O)O[C@H]1C(=O)[C@@]2(C)[C@H]([C@H](OC(=O)c3ccccc3)[C@]3(O)C[C@H](OC(=O)[C@H](OC(=O)COCC(=O)OCCCCCCn4cc(CCCC(=O)*)nn4)[C@@H](NC(=O)c4ccccc4)c4ccccc4)C(C)=C1C3(C)C)[C@]1(OC(C)=O)CO[C@@H]1C[C@@H]2O

Tests used:
[1] = molecular target: T1, EphA2 (Homo sapiens, UniProt P29317); assay: EphA2 internalization into lysosomes, confocal imaging; type: cell-based; settings: PC3 cells, 2 h, 100 μM conjugate or 0.2 μg/mL ephrin-A1 Fc
[2] = test system: PC3 cells; assay: ATP-Lite analysis of cell viability; type: cell-based, human; settings: 72 hours, 10 nM, EphA2 overexpressing PC3
[3] = molecular target: T1, EphA2; assay: Quantum dot internalization into lysosomes; settings: PC3 prostate cancer cells (highly EphA2 expressing), 100 μM
[4] = molecular target: EphA2 Fc (Homo sapiens, UniProt P29317); assay: ELISA displacement of ephrin-A5 AP from immobilized EphA2 Fc; settings: ephrin-A5 AP binding to EphA2 Fc
[5] = Bio-distribution: PTX levels in tumor and plasma by LC-MS/MS; type: in vivo, mice
[6] = Microsomal stability; type: in vitro ADME; settings: rat, liver microsomes, pH 7.2
[7] = test system: PC3 tumor xenografts; settings: intravenous, twice weekly for 3 weeks
[8] = Plasma stability; type: in vitro ADME; settings: rat, plasma (fresh)
[9] = test system: PC3 cells; assay: Release of native paclitaxel in the presence of PC3 cells; type: cell-based, human; settings: in the presence of PC3 cells (data not shown)

T1 sequence (P29317 24-976): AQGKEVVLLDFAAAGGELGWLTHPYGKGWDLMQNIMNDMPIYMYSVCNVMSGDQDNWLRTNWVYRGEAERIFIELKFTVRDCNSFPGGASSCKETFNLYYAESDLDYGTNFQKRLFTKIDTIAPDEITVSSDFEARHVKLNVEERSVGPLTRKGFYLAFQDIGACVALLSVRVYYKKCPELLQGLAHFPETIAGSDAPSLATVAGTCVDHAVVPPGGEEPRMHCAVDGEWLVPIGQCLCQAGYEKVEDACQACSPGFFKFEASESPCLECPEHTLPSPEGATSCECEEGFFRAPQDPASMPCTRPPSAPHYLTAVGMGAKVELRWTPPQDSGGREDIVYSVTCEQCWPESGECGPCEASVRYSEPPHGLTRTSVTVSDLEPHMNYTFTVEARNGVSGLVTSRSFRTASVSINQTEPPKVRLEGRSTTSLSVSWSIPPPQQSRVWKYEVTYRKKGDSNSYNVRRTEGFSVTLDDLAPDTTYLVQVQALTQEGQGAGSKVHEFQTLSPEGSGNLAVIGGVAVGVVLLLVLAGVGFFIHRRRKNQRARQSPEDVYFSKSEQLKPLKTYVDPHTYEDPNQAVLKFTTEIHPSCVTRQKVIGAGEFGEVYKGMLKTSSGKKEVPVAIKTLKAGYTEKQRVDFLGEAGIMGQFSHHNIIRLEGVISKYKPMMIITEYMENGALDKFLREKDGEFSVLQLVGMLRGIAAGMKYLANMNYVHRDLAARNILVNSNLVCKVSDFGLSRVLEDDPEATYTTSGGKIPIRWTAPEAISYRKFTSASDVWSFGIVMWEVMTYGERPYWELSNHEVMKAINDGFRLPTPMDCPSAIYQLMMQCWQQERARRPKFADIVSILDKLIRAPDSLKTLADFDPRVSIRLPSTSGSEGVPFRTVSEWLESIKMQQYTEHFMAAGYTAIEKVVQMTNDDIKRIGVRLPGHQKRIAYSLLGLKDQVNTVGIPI
Chain of EphA2 Fc (P29317 24-537 limits assumed): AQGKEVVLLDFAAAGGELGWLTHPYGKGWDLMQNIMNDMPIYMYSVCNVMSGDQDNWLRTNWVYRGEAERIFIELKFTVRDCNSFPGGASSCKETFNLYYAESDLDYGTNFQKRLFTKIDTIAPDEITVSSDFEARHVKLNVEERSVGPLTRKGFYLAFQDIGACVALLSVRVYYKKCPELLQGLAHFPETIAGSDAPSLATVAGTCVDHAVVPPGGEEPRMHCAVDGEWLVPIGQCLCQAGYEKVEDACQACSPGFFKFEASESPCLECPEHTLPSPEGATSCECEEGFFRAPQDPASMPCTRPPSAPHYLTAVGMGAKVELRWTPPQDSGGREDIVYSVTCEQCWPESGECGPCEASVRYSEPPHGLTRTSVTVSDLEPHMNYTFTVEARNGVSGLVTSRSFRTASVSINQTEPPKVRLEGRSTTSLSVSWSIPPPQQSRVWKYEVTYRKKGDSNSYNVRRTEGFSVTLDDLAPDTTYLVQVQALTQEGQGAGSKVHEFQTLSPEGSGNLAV

Structure (SMILES) | EphA2 internalization into lysosomes [1] | cell death / viability of PC3 cells [2] | Qdot uptake / targeting of cells [3] | displacement of ephrin-A5 [4] | concentration at 30 min ([5]; SCID-beige, mouse, plasma, intravenous, 25 mg/kg) | half-life at 4 μM [6] | signs of toxicity [7] | mouse body weights ([7]; versus vehicle control) | half-life at 1 μM [8] | time to nearly complete release of native paclitaxel [9] | Plasma levels of PTX ([5]; 30 min after single equimolar intravenous dose (PTX 25 mg/kg))
CSCC[C@H](NC(=O)[C@H](C)NC(=O)[C@H](CCSC)NC(=O)[C@H](CO)NC(=O)[C@@H]1CCCN1C(=O)[C@H](Cc1ccc(O)cc1)NC(=O)[C@@H](N)CC(=O)O)C(=O)N[C@@H](Cc1ccc(O)cc1)C(=O)N[C@@H](CO)C(=O)N1CCC[C@H]1C(=O)N[C@@H](CO)C(=O)N[C@H](C(=O)N[C@@H](CCCCNC(=O)CCCc1cn(CCCCCCOC(=O)COCC(=O)O[C@@H](C(=O)O[C@H]2C[C@@]3(O)[C@@H](OC(=O)c4ccccc4)[C@@H]4[C@]5(OC(C)=O)CO[C@@H]5C[C@H](O)[C@@]4(C)C(=O)[C@H](OC(C)=O)C(=C2C)C3(C)C)[C@@H](NC(=O)c2ccccc2)c2ccccc2)nn1)C(=O)O)C(C)C [DYP-PTX, DYPSMAMYSPSV- K*-PTX] (H-DYPSMAMYSPSVK(X1)-OH; N-terminus and C-terminus assumed) | does not trigger EphA2 internalization | no significant cell killing | does not target PC3 cells | neither of the control compounds, DYP motif nor DYP-PTX conjugate, show any detectable displacement of ephrin-A5 |  |  |  |  |  |  | 
CC(=O)O[C@H]1C(=O)[C@@]2(C)[C@H]([C@H](OC(=O)c3ccccc3)[C@]3(O)C[C@H](OC(=O)[C@H](O)[C@@H](NC(=O)c4ccccc4)c4ccccc4)C(C)=C1C3(C)C)[C@]1(OC(C)=O)CO[C@@H]1C[C@@H]2O [PTX, paclitaxel, reference compound] |  |  |  |  | 771 ± 585 ng/mL |  |  |  |  |  | 
CSCC[C@H](NC(=O)[C@H](CCSC)NC(=O)[C@@H]1CCCN1C(=O)[C@@H](NC(=O)[C@H](CO)NC(=O)[C@H](CC(=O)O)NC(=O)[C@@H]1CCCN1C(=O)[C@H](Cc1ccc(O)cc1)NC(=O)[C@H](C)NC(=O)[C@H](CO)NC(=O)[C@@H](N)Cc1ccc(O)cc1)C(C)C)C(=O)N[C@@H](CO)C(=O)N[C@@H](CCCCNC(=O)CCCc1cn(CCCCCCOC(=O)COCC(=O)O[C@@H](C(=O)O[C@H]2C[C@@]3(O)[C@@H](OC(=O)c4ccccc4)[C@@H]4[C@]5(OC(C)=O)CO[C@@H]5C[C@H](O)[C@@]4(C)C(=O)[C@H](OC(C)=O)C(=C2C)C3(C)C)[C@@H](NC(=O)c2ccccc2)c2ccccc2)nn1)C(=O)O [YSA-PTX] |  | retained the ability of paclitaxel to induce cell death at low nanomolar concentrations |  |  |  | 23 min | no adverse signs of toxicity | not affected | 43 min | about 60 minutes | 998 ± 742 ng/mL
